This note sets out measurements from PMC8379256, “A xanthene derivative, DS20060511, attenuates glucose intolerance by inducing skeletal muscle-specific GLUT4 translocation in mice” (Communications Biology, 2021).

This assay deals with L6-GLUT4myc myotubes. Nature of the assay: GLUT4 translocation: cell surface GLUT4myc by anti-Myc antibody assay in L6-GLUT4myc myotubes. The format is cell-based, rat. Also on record: key to GLUT4 translocation: fold of vehicle-treated group. As for the experimental part:
The L6-GLUT4myc rat myoblast cell line was obtained from Dr. Amira Klip and Dr. Philip Bilan, through a license granted by The Hospital for Sick Children, 555 University Avenue, Toronto, Ontario, Canada M5G 1 × 8; or purchased from Kerafast, Boston, MA (ESK202)[43]. The 3T3-L1-GLUT4myc fibroblast cell line was provided by Dr. Tomoyuki Yuasa, Tokushima University[44]. L6-GLUT4myc myoblasts were grown in MEMα (32571036, Thermo Fisher Scientific, Waltham, MA) supplemented with 10% FBS and 1% antibiotics, and then induced to differentiate into myotubes in MEMα supplemented with 2% FBS and 1% antibiotics for 5–8 days. 3T3-L1-GLUT4myc fibroblasts were induced to differentiate into adipocytes as described previously,[45] with minor modifications. Briefly, cells were grown to confluence in growth medium: DMEM (10569010, Thermo Fisher Scientific) supplemented with 10% FBS and 1% antibiotics, and then induced to differentiate into adipocytes in growth medium supplemented with 1 μM dexamethasone, 2 μM rosiglitazone, 0.5 mM isobutylmethylxanthine, and 10 μg mL^−1 insulin for 2 days. The adipocytes were then cultured in growth medium supplemented with 10 μg mL^−1 insulin for a few days before being used for the experiments.
Cell surface GLUT4 levels in the L6-GLUT4myc myoblasts and myotubes were determined by antibody binding assay as described previously[43],[44], with minor modifications. Briefly, cells in a 96- or 24-well plate were starved in serum-free MEMα (0.1% BSA and 1% antibiotics) for 3 h and then treated with the indicated concentrations of DS20060511 and/or insulin for 30 min at 37 °C. After fixation with 4% paraformaldehyde, the cells were incubated with 1% glycine in PBS at 4 °C for 10 min, and blocked with 10% normal goat serum and 3% BSA in PBS at 4 °C for 30 min. The cells were then incubated with anti-c-Myc antibody (sc-40, 1:500) diluted with blocking buffer at 4 °C for 1 h, washed with cold PBS(+), incubated with HRP-conjugated anti-mouse IgG diluted with blocking buffer at 4 °C for 30 min, and then washed again. SuperSignal ELISA Pico Chemiluminescent Substrate (Thermo Fisher Scientific) was added and the luminescent signal was measured. To investigate GLUT4 translocation in the 3T3-L1-GLUT4myc adipocytes, the cells were prepared in a 24-well plate, and anti-c-Myc antibody (sc-789, 1:1000), HRP-conjugated anti-rabbit IgG and SIGMAFAST OPD regent (Sigma–Aldrich) were added for optical detection of the cell surface GLUT4myc levels. The GLUT4 translocation activity was normalized to that in the vehicle-treated group.

Several values for one entry are separate records, joined by “and”; a condition that tells them apart may be missing. Equal values may be shown once.

As for `C/C1=C/C(=O)O[C@@H]2C[C@@H](CC[C@H](C)/C=C\CC1)O[C@@](O)([C@@H]1CSC(=O)N1)C2` [Latrunculin B, reference compound], under “100 nM insulin, Latrunculin B 10-200 nM, Fig. 4d”, the “effect on GLUT4 translocation induced by insulin” value is given as “suppressed GLUT4 translocation induced by insulin”. Moreover, for the setting “30 μM DS20060511, Latrunculin B 10-200 nM, Fig. 4d”, the “effect on GLUT4 translocation induced by DS20060511” value is reported as “not that induced by DS20060511 treatment”. In addition, the GLUT4 translocation by setting is: (Control (no insulin or DS20060511), Latrunculin B 10 nM) 1.16 and 0.86 and 0.98; (Control, Latrunculin B 30 nM) 0.98 and 1.11 and 0.90; (Control, Latrunculin B 100 nM) 1.11 and 0.92 and 0.97; (Control, Latrunculin B 200 nM) 1.06 and 1.00 and 0.94.
